The values that follow come from publication PMC8300687, “A Fine-Tuned Lipophilicity/Hydrophilicity Ratio Governs Antibacterial Potency and Selectivity of Bifurcated Halogen Bond-Forming NBTIs” (Antibiotics, 2021).

Data set [1] in a line: Equilibrium solubility at pH 6.8. The following applies: 37 °C, pH 6.8, aqueous buffer, thermodynamic from solid. As for the experimental part:
(§1) Prior to the measurements of solubility and permeability isocratic HPLC methods were developed. […] The individual method parameters for each compound are given in the Supplementary Materials Table S1.
The vials were then placed in a homogenizer (Next Advance Bullet Blender, Troy, NY, USA) for 5 min ad speed setting “2” after which they were kept in a thermostated shaker (Tehtnica HeatMix, Domel, Slovenia) at 37 °C and 1200 RPM for 24 h. […] Twenty µL of these solutions were injected for the HPLC analysis by the described methods (Supplementary Materials Table S1). External standards for calibration were made in a mobile phase with 5% acetonitrile in a range of 30–90 mg/L and injected at 20 µL injection volumes.

The next data set can be described thus: in vitro. As to conditions: PAMPA. The protocol:
as §1
A 96-well precoated three-layer PAMPA plates (Corning® Gentest™ Pre-coated PAMPA Plate System, Corning, NY, USA) were used according to the manufacturer’s instructions and as described previously with 300 µL of the donor solutions in the bottom compartment and 200 µL of the acceptor solution (pH 7.4 PBS) in the upper compartment at 37 °C and a 4-h incubation time. The initial and end donor solutions were injected at a 5 µL injection volume. The initial donor solutions were also diluted 100-fold and injected at a 100 µL injection volume to serve as external references for the end acceptor solutions which were injected at the same injection volume. The permeability calculations were made with a manufacturer-provided Excel spreadsheet directly from the measured peak areas accounting for the relevant dilutions and injection volumes.

A further data set concerns the target T1, S. aureus DNA gyrase (Staphylococcus aureus, UniProt P20831).
T1 construct: purchased Inspiralis (Norwich, UK)
As to conditions: cited from earlier work.

For the next data set, the system named is E. coli (ATCC 25922). Kind of data set: MIC broth microdilution, E. coli ATCC 25922. It counts as cell-based. As to conditions: Escherichia coli, ATCC25922; read-out: MIC E. coli (ATCC 25922). The protocol:
(§2) Antimicrobial testing was carried out by the broth microdilution method in 96-well plate format following the Clinical and Laboratory Standards Institute (CLSI) guidelines and European Committee on Antimicrobial Susceptibility Testing (EUCAST) recommendations. Bacterial suspension of specific bacterial strain equivalent to 0.5 McFarland turbidity standard was diluted with cation-adjusted Mueller Hinton broth with TES (Thermo Fisher Diagnostic, Landsmeer, The Netherlands), to obtain a final inoculum of 10^5 CFU/mL. Compounds dissolved in DMSO and inoculum were mixed together and incubated for 18–20 h at 35 °C. Suspensions of Mycobacterium sp. were prepared into a tube of Middelbrook 7H9 broth supplemented with 5% OADC (Thermo Scientific, Trek Diagnostic Systems, West Sussex, UK) and incubated for at least 10 days. After incubation the minimal inhibitory concentration (MIC) values were determined by visual inspection as the lowest dilution of compounds showing no turbidity. Tetracycline was used as a positive control on every assay plate.

Another data set deals with E. coli N43 (CGSC# 5583). The data set is described as follows: MIC broth microdilution, E. coli N43. It counts as cell-based. The following applies: Escherichia coli, read-out: MIC E. coli N43 (CGSC# 5583). The protocol: as §2
The test system of a further data set is S. aureus. Set-up: method as in PMID 31140866. The following applies: Figure 2, previous study ref 18; cited from earlier work.
The test system of another data set is E. coli. Set-up: method as in PMID 31140866. The following applies: Figure 2, previous study ref 18; cited from earlier work.

Structures are written as SMILES. In brackets after ≈: the same amount, converted by molar mass. Where two headings read alike, the source gives them in different places.

T1 sequence (P20831 whole entry): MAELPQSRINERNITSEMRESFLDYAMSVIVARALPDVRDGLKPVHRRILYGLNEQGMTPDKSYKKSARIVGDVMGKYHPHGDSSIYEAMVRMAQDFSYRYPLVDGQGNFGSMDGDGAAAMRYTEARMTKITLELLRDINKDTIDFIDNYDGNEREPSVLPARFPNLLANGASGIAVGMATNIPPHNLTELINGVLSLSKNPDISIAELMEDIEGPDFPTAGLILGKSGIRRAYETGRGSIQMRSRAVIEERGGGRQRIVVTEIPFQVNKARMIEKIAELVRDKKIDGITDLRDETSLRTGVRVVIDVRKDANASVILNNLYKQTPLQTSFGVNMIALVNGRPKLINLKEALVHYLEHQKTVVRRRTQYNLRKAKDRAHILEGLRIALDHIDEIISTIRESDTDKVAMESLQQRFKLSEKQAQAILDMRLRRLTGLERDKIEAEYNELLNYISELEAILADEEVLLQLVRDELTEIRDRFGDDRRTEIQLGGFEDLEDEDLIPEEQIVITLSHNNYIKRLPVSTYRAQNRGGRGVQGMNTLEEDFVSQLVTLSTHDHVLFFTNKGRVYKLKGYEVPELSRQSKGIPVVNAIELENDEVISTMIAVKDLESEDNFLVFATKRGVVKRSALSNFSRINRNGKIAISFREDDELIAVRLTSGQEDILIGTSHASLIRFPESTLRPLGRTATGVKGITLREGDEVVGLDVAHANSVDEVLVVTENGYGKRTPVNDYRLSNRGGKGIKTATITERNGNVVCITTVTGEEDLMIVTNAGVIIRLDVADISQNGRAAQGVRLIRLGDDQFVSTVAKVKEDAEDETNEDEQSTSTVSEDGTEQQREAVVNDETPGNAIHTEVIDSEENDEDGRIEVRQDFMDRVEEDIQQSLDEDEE
T1 sequence (P0A0K8 whole entry partner): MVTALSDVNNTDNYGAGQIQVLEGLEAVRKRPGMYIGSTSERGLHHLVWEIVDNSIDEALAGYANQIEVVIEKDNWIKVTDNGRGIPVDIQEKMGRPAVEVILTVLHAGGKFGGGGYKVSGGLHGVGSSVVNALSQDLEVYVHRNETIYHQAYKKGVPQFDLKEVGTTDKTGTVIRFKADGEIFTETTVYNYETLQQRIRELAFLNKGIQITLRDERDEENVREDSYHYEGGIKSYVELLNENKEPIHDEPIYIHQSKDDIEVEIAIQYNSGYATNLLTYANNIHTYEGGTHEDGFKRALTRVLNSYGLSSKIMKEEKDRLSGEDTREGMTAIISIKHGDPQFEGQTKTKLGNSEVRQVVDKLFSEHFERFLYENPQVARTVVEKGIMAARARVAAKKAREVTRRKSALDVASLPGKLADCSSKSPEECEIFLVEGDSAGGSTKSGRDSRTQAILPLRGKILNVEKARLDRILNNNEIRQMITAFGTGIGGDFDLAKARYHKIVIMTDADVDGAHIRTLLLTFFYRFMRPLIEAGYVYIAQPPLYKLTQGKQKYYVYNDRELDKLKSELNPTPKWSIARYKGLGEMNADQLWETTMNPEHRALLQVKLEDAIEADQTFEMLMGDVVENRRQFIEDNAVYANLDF

Consider `C[C@H]1O[C@@H](O[C@H]2[C@@H](O)C[C@H](O[C@H]3[C@@H](O)C[C@H](O[C@H]4CC[C@@]5(C)[C@H](CC[C@@H]6[C@@H]5C[C@@H](O)[C@]5(C)[C@@H](C7=CC(=O)OC7)CC[C@]65O)C4)O[C@@H]3C)O[C@@H]2C)C[C@H](O)[C@@H]1O` [Di goxin, digoxin, reference compound], for which the thermodynamic solubility at 24 h in data set [1] is 52 µg/mL (≈ 66.6 µM). Besides, in “in vitro”, the “PAMPA permeability classification [low/high]” value was “int erm ediat e”. The apparent permeability (Papp) in the data set “in vitro” (pH 7.4) is 0.58 ×10⁻⁶ cm/s.

Regarding `COc1ccc2ncc(F)c(C[C@H](O)[C@@H]3CC[C@@H](NCc4cc5c(nn4)OCCS5)CO3)c2n1` [ACT3870424], at S. aureus DNA gyrase (Table S2, supplement ref 4), the IC50 is 125 nM.

On to `O=c1ccc2ncc(=O)n3c2n1C[C@H]3CN1CCC(NCc2cc3c(cn2)OCCC3)CC1` [Gepotidacin, reference compound], for which the results for the minimum inhibitory concentration (MIC) with E. coli (ATCC 25922) and in the data set on E. coli N43 (CGSC# 5583) were 1 µg/mL (≈ 2.23 µM) and 0.016 µg/mL (≈ 0.0357 µM), respectively.

On to `Cn1c(=O)c2[nH]cnc2n(C)c1=O` [Theophylli n, theophylline, reference compound], for which the thermodynamic solubility at 24 h in data set [1] was determined as 8220 µg/mL (≈ 45600 µM).

In the case of `COCCc1ccc(OCC(O)CNC(C)C)cc1` (stereo not shown) [Metoprolol, metoprolol, reference compound], in data set [1], the thermodynamic solubility at 24 h amounted to 30400 µg/mL (≈ 114000 µM). Also, the results for the Papp at 4 h in the data set “in vitro” and in “in vitro” (pH 7.4) were more than 2.7 ×10⁻⁶ cm/s and 4.2 ×10⁻⁶ cm/s, respectively.

Turning to `COc1ccc2nccc(NC(=O)C3CCC(NCc4cnn(-c5ccccc5)c4)CC3)c2c1` (stereo not shown) [Compound 131], at S. aureus DNA gyrase (Table S2, supplement ref 1), the IC50 is 830 nM. Further, in the data set on S. aureus, the “MIC S. aureus” value was 2 µg/mL (≈ 4.39 µM). In addition, in the data set on E. coli, the “MIC E. coli” value was 64 µg/mL (≈ 140 µM).
